Here are results for two molecules from patent US11964938B2, “3-phenyl-4-hexynoic acid derivatives as GPR40 agonists” (CELON PHARMA S.A., priority 2018, dated 2024).

Structures can show the parent of a compound that is named as a salt.

Series [1] relates to Wistar HAN Crl:WI (HAN) rats. As to the kind of experiment: Glucose tolerance test in vivo on rats. On the set-up: species or system rat. Conditions: 10 mg/kg oral single dose, blood. As for the experimental part:
Experiment B3: Glucose Tolerance Test In Vivo on Rats.
To evaluate glucose lowering effect of the compounds in in vivo study, glucose tolerance test (GTT) was performed. The study was performed on male outbred Wistar HAN Crl:WI (HAN) rats from Charles River, weight about 250-300 g, 8-10 weeks old. Rats were starved for 12 hours (with free access to water).
At time point t=0 animals were given orally a single dose of a compound (by a gastric tube) and immediately (t=0) and after 6 hour (t=6 h) intraperitoneal (i.p.) glucose bolus ([…]). At time points t=0 (just before oral administration of the compounds and intraperitoneal glucose administration), 0.25, 0.5, 1, 2, 2.5, 3, 6, 6.25, 7, 8, and 9 h blood samples from tail vein were collected from each animal for glucose level determination using Accu-chek glucometer (Roche Diagnostics) and additionally at t=0.25, 0.5, 1, 2, 2.5, and 3 h blood samples from tail vein were collected for insulin level measurement using ELISA test (Mercodia).
Tested compound were prepared in 5% DMSO/40% PEG300/55% PBS vehicle and administered at the dose of 10 mg/kg body weight in a volume of 0.5 ml/100 g body weight. After 4 hours after tested compound administration animals were given standard diet to the cages. Decrease of AUC value for glucose level in blood was calculated and the results for selected compounds of the invention are presented in Table 5. Analysis was performed using GraphPad prism software.

Another series has as its system type 2 diabetes patients. Conditions: cited from earlier work.
A further series deals with T1, human GPR40 receptor (Homo sapiens, UniProt O14842).
T1 construct: host or cells: CHO-K1 (co-expressing aequorin)
T1 sequence (O14842 whole entry): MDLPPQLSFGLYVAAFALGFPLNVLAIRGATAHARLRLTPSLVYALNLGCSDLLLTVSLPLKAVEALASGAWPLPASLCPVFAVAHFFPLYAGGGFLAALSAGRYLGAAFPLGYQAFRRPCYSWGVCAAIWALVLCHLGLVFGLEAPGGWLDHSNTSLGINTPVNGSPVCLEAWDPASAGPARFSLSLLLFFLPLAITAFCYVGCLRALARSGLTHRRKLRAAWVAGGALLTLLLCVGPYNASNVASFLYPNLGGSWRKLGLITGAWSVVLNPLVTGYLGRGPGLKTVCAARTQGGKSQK
As to the kind of experiment: Analysis of receptor activation - calcium ions concentration measurement (aequorin luminescence). Conditions: enhancement or decrease of activity in relation to reference TAK-875, from EC50 values. It counts as cell-based. The source says: Experiment B1: Analysis of Receptor Activation—Calcium Ions Concentration Measurement.
As a result of the measurement, luminescence change in the time curve were obtained, the integration of which allowed to calculate the relative amount of calcium ions released to cytosol. […] Curves plotted from obtained results allowed to determine EC50 values.

The test system of series [2] is MIN6 (mouse insulinoma) cells. As to the kind of experiment: Glucose-dependent insulin release in mouse insulinoma cells (MIN6). Format: cell-based. Conditions: multiplicity of insulin efflux increase in relation to control; 10 uM compound, 20 mM glucose, 1 hour. The method, then:
Experiment B2: Glucose-Dependent Insulin Release in Mouse Insulinoma Cells (MIN6).
MIN6 (mouse insulinoma) cells were seeded on a plate covered with PDL (poly-D-lysine) at 5×10^5/well and cultured for 48 hours. […] Tested compounds, after dilution to the concentration of 10-40 uM in KRBH buffer with the addition of 20 mM glucose, were added to the cells and incubated for 1 hour to induce insulin release. Negative control was KRBH buffer with the addition of 2 mM glucose. Concentration of released insulin was determined using ELISA test (Mercodia).
Table 4 present MIN6Insulin @10 uM values for representative compounds of the invention. MIN6Insulin @10 uM value is a multiplicity of insulin efflux increase in relation to control experiment, following addition of 10 uM of tested compound.

The subject of series [3] is diabetes STZ-treated mice. In words: Von Frey test on diabetes STZ-treated mice (tactile allodynia). Conditions: 60 minutes after administration, mean of group. It counts as in vivo, mouse. As for the experimental part:
Experiment B5: Von Frey Test on Diabetes STZ-Treated Mice.
Tactile allodynia was assessed by electronic von Frey apparatus (Bioseb) equipped with a flexible filament. Reaction to stimuli was assessed using growing applied pressure (from 0 to 10 g) on a plantar side of the hind foot of mice. Pregabalin was a control, as reference healthy mice with preserved normal response to the stimuli were used. In the day of the experiment, mice were placed separately in cages with a wire mesh bottom for 1 h for habituation to experimental conditions. After habituation period, each mouse was treated 3 times alternately, with 30 s intervals between each measurement, to obtain starting values (before administration of the compound) of pain sensitivity. […] The results are presented in Table 7 as mean value for all mice in a given group (n=7-10).

On to `Cc1cc(OCCCS(C)(=O)=O)cc(C)c1-c1cccc(COc2ccc3c(c2)OC[C@H]3CC(=O)O)c1` [Example R1, 2[(3S)-6-({3-[4-(3-methanesulfonylpropoxy)-2,6-dimethylphenyl]-phenyl}methoxy)-2,3-dihydro-1-benzofuran-3-yl]acetic acid, reference compound], for which the “AUC for glucose (0-540 min.)” value in series [1] (i.p. glucose bolus at t=0 and 6 h) is 30950.6. In addition, the “AUC for insulin (0-180 min.)” value in series [1] (i.p. glucose bolus) was 210.5. Further, the side effects entry in the series on type 2 diabetes patients (clinical development, associated with inhibition of bile acids transport) is “side effects on the liver”. In addition, the glucose levels result in the series on type 2 diabetes patients (phase 3 clinical trials, type 2 diabetes patients) is “ability to reduce glucose levels”. The “% PTAK-875” value on human GPR40 receptor is reported as “B (81-120% PTAK-875)”. Also, the “MIN6Insulin @10 uM” value in series [2] was found to be 1.336.

As for `CC#C[C@@H](CC(=O)O)c1ccc(OCC(C)=C(C)C)cc1` [Example S1, (3S)-3-{4-[(2,3-dimethylbut-2-en-1-yl)oxy]phenyl}hex-4-ynoic acid calcium salt], the “Applied pressure causing the response, sick animal (neuropathic) after compound administration” value in series [3] (3 mg/kg p.o.) stood at 1.85 g; in series [3] (10 mg/kg p.o.) it was 2.34 g; in series [3] (30 mg/kg p.o.) it was 3.36 g.
